Series [1] deals with A2780 human ovarian cancer cells. Description: Cytotoxicity MTT assay, A2780. It is filed as cell-based. The settings on record: 72 h. An excerpt:
(§1) Ovarian carcinoma cells, NIH:OVCAR3, A2780, A2780/CP70, and SKOV3 were purchased from the American Type Culture Collection (ATCC, Rockville Md.). Peripheral blood mononuclear cells (PBMCs) of two different donors were obtained from Zen Bio Inc. (Research Triangle, NC). Cancer cell lines were maintained in Roswell Park Memorial Institute (RPMI) medium (glutamine-free supplemented with 10% fetal bovine serum, Atlanta Biologics, Atlanta Ga.) and 1% penicillin/streptomycin. PBMCs were thawed in specialized medium (10% […], 40% RPMI and 50% FBS) and subsequently cultured in RPMI containing 20% FBS. For T-cell proliferation experiments, PBMCs were stimulated by the addition of phytohemagglutinin (PHA-P). All cells were grown at 310 K in a humidified atmosphere containing 5% CO2. D-1-methyltryptophan, L-tryptophan and L-kynurenine were purchased from Sigma Aldrich.
(§2) The colorimetric MTT assay was used to determine the toxicity of 1, 2, and cisplatin. Cells (2×10^3) were seeded in each well of a 96-well plate. […] Cisplatin was prepared as a 5 mM solution in PBS and diluted using media. 1, 2 and C16—Pt-Suc-NHC2H4OH were prepared as 10 mM solution in DMSO and diluted using media. […] The absorbance of the solution wells was read at 570 and 650 nm. Absorbance values were normalized to DMSO-containing control wells and plotted as concentration of test compound versus % cell viability. […]
Background: Tetrazolium assays rely on reduction of a dye to a coloured formazan, in cell work by metabolically active cells.

The test system of series [2] is A2780/CP70 human ovarian cancer cells. Description: Cytotoxicity MTT assay, A2780/CP70. The format is cell-based. The following applies: A2780/CP70, MTT, 72 h.
Source text: as §1
The colorimetric MTT assay was used to determine the toxicity of 1, 2, and cisplatin. Cells (2×10^3) were seeded in each well of a 96-well plate. […] Cisplatin was prepared as a 5 mM solution in PBS and diluted using media. 1, 2 and C16—Pt-Suc-NHC2H4OH were prepared as 10 mM solution in DMSO and diluted using media. The final volume amount of DMSO in each well was 0.5%, and which was present in the untreated control as well. Cells co-incubated with cisplatin and (D)-1-MT were first pre-treated with 1 mM (D)-1-MT. […] The RPMI/MTT, mixture was aspirated and 100 μL of DMSO was added to dissolve the resulting purple formazan crystals. The absorbance of the solution wells was read at 570 and 650 nm. Absorbance values were normalized to DMSO-containing control wells and plotted as concentration of test compound versus % cell viability. IC50 values were interpolated from the resulting dose dependent curves. The reported IC50 values are the average of at least three independent experiments, each of which consisted of six replicates per concentration level.

The subject of series [3] is NIH:OVCAR3 human ovarian cancer cells. Nature of the series: Cytotoxicity MTT assay, NIH:OVCAR3. The format is cell-based.
Source text: as §1, §2

In series [4] the test system is SKOV3 human ovarian cancer cells. Nature of the series: Cytotoxicity MTT assay, SKOV3. It is filed as cell-based.
Source text: as §1, §2

In another series the test system is genomic DNA. Nature of the series: DNA platination experiments. The format is cell-based, human. The settings on record: SKOV3, 10 μM, 17 h. As for the experimental part:
To gain further insight into the mode of action was studied of 1 and 2, the subcellular distribution of platinum. SKOV3 cells were incubated with the drug candidates (5 μM) for 17 h, using cisplatin as a control. The platinum content was measured by using GFAAS.
These cells were then treated with the compounds (10 μM) in fresh medium (9 mL) and subsequently incubated for 17 h at 37° C. The medium was aspirated and the cells were washed with PBS (3×8 mL), harvested by trypsinization (1 mL), and washed with 2 mL of PBS. The cell suspension was centrifuged at 2000 rpm for 5 min at 4° C. The cell pellet was suspended in DNAzol (1 mL, genomic DNA isolation reagent,). The DNA was precipitated with pure ethanol (0.5 mL), washed with 75% ethanol (0.75 mL×3), and re-dissolved in 500 μL of 8 mM NaOH. The DNA concentration was determined by UV-Vis spectroscopy and the platinum content was quantified by GFAAS. All experiments were carried out in triplicate.

For series [5] the following is noted: reported values used for comparison with human blood stability; cited from earlier work.
The test system of the next series is SKOV3 cells. Nature of the series: Cell cycle analysis by flow cytometry (DNA content). (In general: In flow cytometry, cells or beads pass a laser one at a time.)
Another series has as its system human IDO in SKOV3 cells. Description: Immunoblotting and qRT-PCR of IDO expression in SKOV3 cells. The format is cell-based. As for the experimental part: Total RNA was isolated with the Qiagen RNAeasy RNA isolation kit (Hilden, Germany) and cDNA was synthesized with the Applied Biosystems reverse-transcription-kit (Foster City, Calif., USA). qRT-PCR was performed in a Light cycler 480 II thermo cycler with SYBR Green PCR Mastermix (Roche). All primers were separated by at least one intron on the genomic DNA to exclude its amplification. PCR reactions were checked by including no-RT controls, by omission of templates, and by melting curves. Standard curves were generated for each gene. Relative quantification of gene expression was determined by comparison of threshold values. All samples were analyzed in duplicate at two different dilutions. All results were normalized to GAPDH.
Cells were washed with PBS, scraped into SDS-PAGE loading buffer (64 mM Tris-HCl (pH 6.8)/9.6% glycerol/2% SDS/5% β-mercaptoethanol/0.01% Bromophenol Blue), and incubated at 95° C. for 10 min. […] Membranes were blocked in 5% (w/v) bovine serum albumin in PBST (PBS/0.1% Tween 20) and incubated with the appropriate primary antibodies (Cell Signalling Technology and Santa Cruz). After incubation with horseradish peroxidase-conjugated secondary antibodies (Cell Signalling Technology), 1:1000, immuno complexes were detected with the ECL detection reagent (BioRad) and analyzed using UVP biospectrum imaging system fitted with a chemiluminescence filter.
(In general: Immunoblotting shows a protein as a band on a membrane.)

Series [6] is described as follows: Whole human blood stability test. The format is in vitro ADME. Here is the method: To a volume of 0.8 mL fresh whole human blood (Innovative Research, Novi, Mich.) was added 24 μL of a DMSO solution of 2 (2.0 mM), resulting in a final concentration of 60 μM. After 5 sec of vortexing, a 100 μL aliquot of the blood sample (0 h time point) was immediately transferred to a new tube containing 300 μL of octanol, and the remaining […] of blood was incubated at 37° C. with rotation (1100 rpm). The blood-octanol mixture was vortexed for 2 min at R.T. and then centrifuged to separate the phases. The isolated octanol extract was diluted with methanol for GFAAS measurement. At varying time points (1 h, 2 h, 3 h, 5 h, and 7 h), a 100 μL aliquot was removed from the incubating blood and extracted as described above. For the 7 h sample, analytical HPLC was employed to confirm the integrity of the Pt compound. A standard of 2 and an octanol extract from blank whole human blood were used for comparison.

A short description of series [7]: Tolerability/toxicity in mice. The format is in vivo.
Series [8] in a line: Water-octanol partition coefficient (Log P), shake-flask method and GFAAS. The following applies: octanol/PBS.
For series [9], the system named is HCT 116 P53+/+ colorectal cell line. Description: MTT anticancer activity, HCT116 p53 +/+. The following applies: 48 h. It is filed as cell-based. As for the experimental part: (§3) An MTT assay was run to measure the compounds anti cancer activity. The two colorectal cell lines HCT 116 P53+/+ and HCT 116 P53−/− were plated on 96 well plates. After adhesion to the plate, each individual compound was added to three rows, each consisting of 8 wells with a 3 fold dilution in concentration per well beginning at 25 μM. After 48 hours of incubation, the MTT reagent was added to the plates, which were then incubated for another 4 hours. The well contents were then dissolved in 200 μL of DMSO, and the plates were read for UV absorption at 570 nm and 650 nm. The collected data was then analyzed to produce the sigmoidal curves, which were then used to interpolate the IC50 values of each compounds. (See Table 3).

The subject of series [10] is HCT 116 P53−/− colorectal cell line. Nature of the series: MTT anticancer activity, HCT116 p53 −/−. It is filed as cell-based. The settings on record: 48 h. As for the experimental part: as §3

As usually defined, the IC50 is the concentration needed to halve the response being measured. Take [cis-Pt(NH3)2Cl2] [Cisplatin]: the IC50 in series [1] is 0.7 ± 0.2 µM; in series [2], 10.4 ± 0.6 µM; in series [3] (72 h), 4.1 ± 0.2 µM; in [4] (72 h) it was 3.7 ± 0.28 µM. Besides, in the series with genomic DNA, the DNA platination is given as 409±54 Pt adducts/10^4 nucleotides. Moreover, in series [5], the “t1/2 (reported)” value is listed as 21.6 min. Also, in the series with SKOV3 cells, the “cell cycle arrest phase” value was “G2/M arrest”.

For orientation: logP means a log measure of how a compound divides between an organic and an aqueous phase. A high value points to a more lipophilic compound. For `Cn1cc(C[C@@H](N)C(=O)[O][Pt]([NH2])([NH2])([Cl])([Cl])[O]C(=O)[C@H](N)Cc2cn(C)c3ccccc23)c2ccccc21` (mixture of isomers) [Compound 1, cis,cis,trans-[Pt(NH3)2Cl2(O2C-D-1-MT)2]], in the series on human IDO in SKOV3 cells (immunoblotting), the “concentration at which IDO protein expression is blocked” value was 100 µM. For the same compound, the stability in blood result in [6] was “stable in blood”. Besides, the “toxicity / tolerance in mice” value in [7] is reported as “low toxicity in mice”. Moreover, the logP at 3 h in the series “physchem” was -0.21 ± 0.08.

Consider `Cn1cc(C[C@@H](N)C(=O)O)c2ccccc21` [(D)-1-MT, D-1-methyltryptophan], for which the IC50 in series [1] (Homo sapiens) was determined as 833 ± 7.53 µM; in series [2] (Homo sapiens), 1040 ± 63.9 µM; in [3] (Homo sapiens, OVCAR-3, 72 h) it was 1200 ± 80 µM; in series [4] (Homo sapiens, SK-OV-3, 72 h), 1918 ± 8.4 µM. In addition, the logP at 3 h in series [8] is -2.98 ± 0.15.

Turning to `CCCCCCCCCCCCCCCCNC(=O)[O][Pt]([NH2])([NH2])([Cl])([Cl])[O]C(=O)CCC(=O)O` [C16—Pt-Suc, reference compound], in the series with human IDO in SKOV3 cells (immunoblotting and qRT-PCR), the “IDO protein expression (IDO inhibition)” value was “did not show IDO inhibition”.

On to `O=C(O)C(=O)O.[NH-][C@@H]1CCCC[C@H]1[NH-].[Pt+2]` [Oxaliplatin], for which the figures for the half-inhibitory concentration (IC50) in series [9] and in series [10] were 1.32 ± 1.48 µM and 6.55 ± 1.78 µM, respectively.

Consider `CC(=O)[O][Pt]([NH2])([Cl])([Cl])([NH]C1CCCCC1)[O]C(C)=O` [satraplatin], for which the “t1/2 (reported)” value in series [5] is recorded as 6 min.

These data come from patent US20170129911A1, “COMPLEXES COMPRISING A PLATINUM COMPOUND AND AN IMMUNE CHECKPOINT INHIBITOR AND RELATED METHODS” (Massachusetts Institute of Technology, priority 2015, published 2017).
